The values below come from patent publication US5532225A, “Acyclic purine phosphonate nucleotide analogs as antiviral agents, and related synthetic methods” (SRI International, priority 1992, dated 1996).

One experiment concerns human cytomegalovirus. In words: in vitro antiviral evaluation (cytotoxicity and viral cytopathic effect, CPE) in MRC-5 cells. The conditions noted are these: racemate approximately 50:50 (w/w) of 1-9 and 2-9. Format: cell-based. How it is done:
The compounds prepared in Examples 1 and 2 were evaluated in vitro as antiviral agents against human cytomegalovirus.
One herpes virus strain employed was Strain McCrae of type 1 herpes (thymidine kinase positive virus) (HSV-1TK^+). This strain was prepared and titered in MA-104 cells and frozen at -90° C. until use. Also used were strain HF (HSV-1TK^-), strain E194 (HSV-2), NJB strain (MCMV), and strain AD169 (HCMV).
Continuous passaged MRC-5 cells obtained from the American Type Culture Collection (Bethesda, Md.) were used for testing of herpes-type virus, with growth medium consisting of Minimum Essential Medium (MEM) supplemented with 0.1% NaHCO3 and […] gentamicin.
To a 96 well microtiter plate containing an established 24 hour monolayer of cells from which the medium has been decanted was added 0.1 mL of varying (one-half log10) concentrations of test compound, which incubated on the cell 15 minutes, after which 0.1 mL of virus in a concentration of 320 cell culture 50% infectious doses (CCID50)/0.1 mL was added. The plate was covered with plastic wrap and incubated at 37° C. The cells were examined microscopically after 72 hours for evidence of cytotoxicity and for viral cytopathic effect (CPE).
(Protection from cytopathic effect is a common read-out in antiviral testing.)

Another experiment has as its system several herpes viruses. In words: activity of isolated enantiomer against several herpes viruses (general statement). Format: cell-based.

In the case of `Nc1nc2c(ncn2CO[C@@H](CO)CCP(=O)(O)O)c(=O)[nH]1` [Compound 2-9, 9-[(R(-)-1-Hydroxymethyl-3-phosphono)-propyl-oxymethyl]guanine], the “share of the antiviral activity of the racemate due to the enantiomer (conclusion in words)” value with human cytomegalovirus is reported as “majority of the antiviral activity of the racemate is due to the (R) enantiomer”. The “activity against several herpes viruses (in words)” value in the experiment on several herpes viruses is “significant activity against several herpes viruses”.
